Results reported in US11958828B1, “4,5-bis(4-bromophenyl)-1-hexyl-2-(3-pyridyl)-1H-imidazole as an antimicrobial compound” (KING FAISAL UNIVERSITY, priority 2023, dated 2024).

Experiments:
Format in all cases: cell-based
Conditions in all cases: after 10, 20, 40 and 60 min at all dilutions 1:100, 1:200, 1:400, 1:800
Staphylococcus aureus = assay: Antimicrobial testing by agar dilution, Staphylococcus aureus
Experimental: (§1) The antimicrobial properties of the 4,5-bis(4-bromophenyl)-1-hexyl-2-(3-Pyridyl)-1H-imidazole (5) were studied by the method of agar dilution. Test solutions of each compound were prepared in concentration of 1% using dimethylformamide as a solvent then they are diluted in physiological solution to obtain the final experimental dilutions 1:100, 1:200, 1:400, 1:800. The effect of these substances were compared with furacillin in a controllable study. The testing microbes used were gram positive bacteria Staphylococcus aureus, gram negative bacteria Escherichia coli, Pseudomonas aeruginosa and Candida albicans fungi were taken. The experiments used for this survey were meat-pentonlu agar (EPA) for cultivation of bacteria and Saburo environment for fungi. Each experiment used 1 ml of test solution on each plate 500 min. Add 2 drops of emulsified with microbes feel. All experimental samples were taken from the agar after 10, 20, 40, 60 minutes in the environment on the basis of Patrk planted. Bacteria were cultivated at a temperature of 37° C. for 1 day and the mushroom was kept in a thermostat for […] at a temperature of 28° C. in the. Then results were checked.

Escherichia coli = assay: Antimicrobial testing by agar dilution, Escherichia coli
Experimental: as §1

Pseudomonas aeruginosa = assay: Antimicrobial testing by agar dilution, Pseudomonas aeruginosa
Experimental: as §1

Candida albicans = assay: Antimicrobial testing by agar dilution, Candida albicans
Experimental: as §1

Measured: inhibition activity (in words)

CCCCCCn1c(-c2cccnc2)nc(-c2ccc(Br)cc2)c1-c1ccc(Br)cc1 [4,5-bis(4-bromophenyl)-1-hexyl-2-(3-pyridyl)-1H-imidazole]
highest inhibition activity: all assays above
